Earlier results in patent publication US20060217788A1, “Method of using laser induced injury to activate topical prodrugs” (priority 2004, published 2006).
Where no end group is shown, it is not given here. The star is where a group is joined. Palmitoyl = CCCCCCCCCCCCCCCC(=O)*

What was measured:
[1] = test system: MMP-1, -2, -3, -7, -9 and -13
[2] = test system: wrinkle improvement and photo-aging scores; settings: 3 ppm, clinical studies
fibroblast cultures = settings: in vitro

PLGLAARK [fairly broad spectrum peptide substrate cleavable by MMPs]
cleavage by MMPs [1]: cleavable

N-Palmitoyl-Lys-Thr-Thr-Lys-Ser (Palmitoyl-KTTKS) [Pal-KTTKS, pentapeptide conjugated to a 16-carbon fatty acid moiety, from Sederma]
irritation or changes in barrier function [2]: without significant irritation or changes in barrier function | wrinkle improvement and reduction of photo-aging scores [2]: comparable to retinoids

KTTKS [pentapeptide, subfragment of the carboxyl-terminal propeptide of type I collagen]
production of matrix components including collagen I, III and fibronectin (fibroblast cultures): increased production
